Assay [1] can be described thus: FeCl2 catalyzed oxidation of a dihydrotetrazine in the presence of H2O2. Particulars: DHTz 100 μM, 1 mM H2O2, FeCl2 0.05 mM, deionized water. How it is done:
N′-Boc PEG10 dipyridyl-dihydrotetrazine was dissolved in deionized water containing 1 mM H2O2 to give a final DHTz concentration of 100 μM. The UV absorbance at 330 nm wavelength was monitored over 10 min. Then a 5 mM FeCl2 stock solution was added and mixed quickly to get a final FeCl2 concentration of 0.05 mM., followed by continuous monitoring of UV absorbance at 330 nm over 10 min. Oxidation was rapid and complete within ˜1 minute.

A short description of assay [2]: NIR photocatalytic oxidation/Diels-Alder/payload release (methylene blue, 660 nm LED). The conditions noted are these: 60% H2O/MeOH, 660 nm LED, catalytic methylene blue, UV-vis. As for the experimental part: Encouraged by calculation, the inventors synthesized the compound 7, where p-nitrophenol serves as a model payload that can be readily monitored by UV and NMR (FIG. 7, panel A). To study the Diels-Alder/elimination sequence […], the inventors chose to oxidize 7 with Dess-Martin periodinane—a reagent that instantaneously oxidizes dihydrotetrazines to tetrazines. […] Upon LED irradiation (660 nm, 9.1 mW/cm^2) of 7 (28 μM) in MeOH in the presence of catalytic methylene blue (7 μM), complete oxidation/Diels-Alder/payload release within 15 minutes was observed (FIG. 7, panel B). In this photocatalytic reaction, aliquots by ESI-MS were analyzed, and intermediates 8 and 9 were not detected.
[…]. […] The reaction of 12 to produce 13 and 14 could also be promoted by irradiating a solution of 12 in 60% H2O/MeOH for 30 min with a 660 nm LED light source in the presence of catalytic amounts of methylene blue with monitoring by UV-Vis. The complete conversion to product 13 could be observed by UV-vis within 30 minutes.

For the molecule `CC(C)(C)OC(=O)NCCOCCOCCOCCOCCOCCOCCOCCOCCOCCOCCOCCNC(=O)CCCC(=O)Nc1ccc(C2=NNC(c3ccccn3)=NN2)nc1` [N′-Boc PEG10 dipyridyl-dihydrotetrazine], in assay [1], the “time to complete oxidation” value was approximately 1 min.
Turning to `COCCOCCOCCOCCOCCOCCOCCOCCOc1ccc(C2=NNC(c3ncccc3N(C)C(=O)/C=C/Oc3ccc(N(CCCl)CCCl)cc3)=NN2)nc1` [compound 12, (E)-N-(2-(6-(5-(2,5,8,11,14,17,20,23-octaoxapentacosan-25-yloxy)pyridin-2-yl)-1,4-dihydro-1,2,4,5-tetrazin-3-yl)pyridin-3-yl)-3-(4-(bis(2-chloroethyl)amino)phenoxy)-N-methylacrylamide], in assay [2], the “time to complete conversion to product 13” value is not above 30 min.

The record behind these values is patent publication US11485987B2, “Methods for inducing bioorthogonal reactivity” (University of Delaware, priority 2015, dated 2022).
